Results published in US5936065A, “CS-1 peptidomimetics, compositions and methods of using the same” (Cytel Corporation, priority 1995, dated 1999).
Square brackets hold non-standard residues; d marks the D form. Peptide text beside a SMILES is read from it. * marks the point of attachment. PhAc = O=C(Cc1ccccc1)*

How the values were obtained:
[1] = test system: asthmatic sheep; test: Treatment of asthmatic sheep (Ascaris suum antigen, double blind cross-over); assay type: in vivo; conditions: for PC400, carbachol dosage required to increase SRL 4-fold: 24 hours after challenge, pre-challenge values about 20-23 BU; for specific lung resistance (SRL) after challenge: nebulized 1 mg/kg twice a day for three days, 0.5 hours prior to and four hours post challenge on day 4, FIG. 7
Description: Six asthmatic sheep were treated in a double blind cross-over study. […] This study was carried out generally as described in Abraham et al., J. Clin. Invest., 93:776-787 (1994).
The inhibitor compound used here was Compound ID No. 896.52, N-phenylacetyl-Leu-Asp-Phe-D-Pro-NH2, with a control compound that comprised the previously described compound having the same residues in a scrambled sequence. The vehicle for the nebulized compounds was phosphate-buffered saline. The compounds were administered at a dose of 1 mg/kg each, twice a day for three days prior to challenge, as well as 0.5 hours prior to and four hours post challenge on day 4. Because this was a crossover study, each animal received one or the other treatment, followed by a rest and then the other treatment. Each animal therefore served as its own control.
Post challenge airway responsiveness was also assayed. Here, specific lung resistance, SRL, returned to baseline values 24 hours after challenge, however, the sheep were hyperresponsive to inhaled carbachol at that time.

[2] = test system: BALB/c mice; test: Adoptive transfer delayed type hypersensitivity (oxazolone) in mice; assay type: in vivo, mouse; conditions: for reduction of inflammation (swelling diameter at challenge site), initial study: 6 mg/kg/day subcutaneously by implanted pump for 24 hours, ear swelling 24 hours after challenge, FIG. 5
Description: An adoptive transfer delayed-type hypersensitivity murine model has been developed using splenic T cells primed to oxazolone. This model is described in Elices et al., Clin. Exp. Rheum., 11(Suppl. 8):577-580 (1993), whose procedures were followed here.
Thus, BALB/c mice were shaved on the belly and painted (50 μl on the belly and 5 μl on each paw) with three percent oxazolone in acetone/olive oil (4:1) at days zero and 1. At day 5, the mice were sacrificed, their spleens removed, and splenic T cells were obtained via nylon wool columns.
Normal saline or saline containing 25×10^6 /animal of the oxazolone-immune T cells were separately injected into naive mice. The mice were then challenged by painting 10 μl of 2 percent oxazolone onto one ear each. All procedures were carried out under sterile conditions and in endotoxin-free buffers.
Prior to challenge or saline injection, the mice were implanted with pumps that subcutaneously administered normal saline, normal saline containing the compound, Compound ID No. 896.52, N-phenylacetyl-Leu-Asp-Phe-D-Pro-NH2, or normal saline containing a compound with a scrambled sequence continually at 6 mg/kg/day for a 24-hour time period. The swelling diameter at the site of challenge or saline injection was measured with a microcaliper 24 hours thereafter.
An expanded study was carried out as described above except that a scrambled compound control was not used as a control for further inhibitor compounds of Table 1 with larger groups of mice. Statistical analyses were carried out versus injection of vehicle alone.

[3] = test system: New Zealand white rabbits; test: Rabbit heterotopic cardiac allograft model; assay type: in vivo; conditions: for Expression on Coronary Arteries: ICAM-1 / Expression on Coronary Arteries: Macrophages / Expression on Coronary Arteries: T cells / Expression on Coronary Arteries: Total Fibronectin / Expression on Coronary Arteries: VCAM-1 / Expression on Coronary Arteries: MHC Class II: 1 mg/kg s.c., allograft, 7 to 8 days; for Expression on Coronary Arteries: MHC Class II: immunohistochemistry; as to Expression on Coronary Arteries: ICAM-1: key: -: negative; ±: minimal; +: little; ++: moderately abundant; +++: very abundant; as to Expression on Coronary Arteries: Macrophages: key: -: negative; ±: minimal; +: little; ++: moderately abundant; +++: very abundant; as to Expression on Coronary Arteries: T cells: key: -: negative; ±: minimal; +: little; ++: moderately abundant; +++: very abundant; as to Expression on Coronary Arteries: Total Fibronectin: key: -: negative; ±: minimal; +: little; ++: moderately abundant; +++: very abundant
Source text: New Zealand white rabbit SPF hearts were allografted into the necks of similar rabbits to assay a graft-vs-host immunorejection model and the affect of a contemplated compound on that immunoinflammatory response.
New Zealand white female rabbits (Charles River Lab., Saint Laurent, Quebec), between 3.5 and 4 kg underwent heterotopic cardiac transplant following an experimental protocol previously described [Alonso et al., Am. J. Pathol., 87:415-442 (1977); Clausell et al., Circulation, 89:2768-2779 (1994)]. The animals were unselected to favor an HLA-mismatch, the host rabbits were Pasteurella-free and the donors, outbred animals. Both host and donor rabbits were fed Purina 5321-0.5 percent cholesterol diet (Research Diets Inc., New Brunswick, N.J.), a strategy that has proven useful in accelerating the process of allograft arteriopathy [Alonso et al., Am. J. Pathol., 87:415-442 (1977)]. The diet was commenced four days prior to the transplant and continued in the recipient of the transplant until the completion of the experimental period.
The technique of heterotopic cardiac transplantation has been previously described [Clausell et al., Circulation, 89:2768-2779 (1994)]. Briefly, a vertical incision was performed in the anterior aspect of the neck of the recipient rabbit and the left common carotid artery and the ipsilateral external jugular vein were isolated. The cardiac allograft was placed in the neck by anastomosing the aorta end-to-side to the recipient's carotid artery and the pulmonary end-to-side to the recipient's external jugular vein, following a total period of ischemia for the donor hearts of approximately 30 minutes. Postoperative care was in compliance with the Principles of Laboratory Animal Care formulated by the Canadian National Society for Medical Research.
Beginning the day of the transplant, the animals were randomized and treated with either scrambled compound (control group) at 1 mg/kg s.c. or the inhibitor compound at 1 mg/kg s.c. The doses of the compounds were empirically extrapolated to the in vivo model based on preliminary in vitro studies, of Table 1. No other immunosuppression therapy was administered. The grafts were monitored daily by palpation and maintained for 7 to 8 days, a previously described endpoint that was associated with myocardial rejection (impaired cardiac contractility) and development of the allograft arteriopathy in this model [Clausell et al., Circulation, 89:2768-2779 (1994)]. A total of fourteen animals were studied in the control (n=7) and treated (n=7) groups.
The animals were sacrificed using a lethal dose of euthanol (480 mg i.v.) (MTC Pharmaceutical, Cambridge, ON), host and donor hearts were removed, and the coronary arteries were perfused with saline through the aorta, followed by light fixation by perfusion with 2 percent paraformaldehyde (Sigma, St, Louis, Mo.). […] Different sections of the hearts were either saved in 10 percent formalin (BDH Inc., Toronto, ON) for light microscopy studies or immediately frozen in O.T.C. Compound Tissue Tek (Miles Inc., Elkart, Ind.) for specific immunohistochemistry studies.
Tissue specimens from the donor hearts were stained with hematoxylin:eosin for histological grading of rejection according to a modified Billingham's criteria [Billingham, Hum. Pathol., 10:367-386 (1979)]. The sections were graded by a pathologist without knowledge of whether the donor hearts came from control or inhibitor compound treated animals.
Three different paraffin-embedded tissue sections from host and donor hearts from both control and treated rabbits were stained by the Movat pentachrome method for light microscopy. Morphometric analysis was performed using a Zeiss microscope attached to a computer-generated video analysis system (Perceptics Inc., NuVision software), as described in Clausell et al., Circulation, 89:2768-2779 (1994). […]

Row | Structure (SMILES) | PC400, carbachol dosage required to increase SRL 4-fold [1] | specific lung resistance (SRL) after challenge [1] | reduction of inflammation (swelling diameter at challenge site), initial study [2] | Percent Inhibition of post-challenge swelling, expanded study ([2]; versus vehicle alone, implanted pump, 24 hours) [%] | Expression on Coronary Arteries: ICAM-1 [3] | Expression on Coronary Arteries: Macrophages [3] | Expression on Coronary Arteries: T cells [3] | Expression on Coronary Arteries: Total Fibronectin [3] | Expression on Coronary Arteries: VCAM-1 [3] | Expression on Coronary Arteries: MHC Class II [3] | Baseline (rabbit own host heart) of incidence of intimal thickening [3] [%] | Baseline (rabbit own host heart) of severity of intimal thickening [3] [%]
1 | CC(C)C[C@H](NC(=O)Cc1ccccc1)C(=O)N[C@@H](CC(=O)O)C(=O)N[C@@H](Cc1ccccc1)C(=O)N1CCC[C@@H]1C(N)=O [896.52, N-phenylacetyl-Leu-Asp-Phe-D-Pro-NH2] (PhAc-LDF[dP]-NH2) | about 27 BU | less of a change from baseline specific lung resistance | reduced this type of CS-1/VLA-4-mediated immunoinflammation | 36 | ± | ± | ± | ± | ± | ± | 12 | 12
2 | CC(C)C[C@H](NC(=O)[C@H](CC(=O)O)NC(=O)Cc1ccccc1)C(=O)N[C@@H](Cc1ccccc1)C(=O)N1CCC[C@@H]1C(N)=O [N-phenylacetyl-Asp-Leu-Phe-D-Pro-NH2, reference compound] (PhAc-DLF[dP]-NH2) | about 12 BU | had an increase in that pulmonary function | no reduction of inflammation |  | + | + | ++ | ++ | + | ++ | 1 | 12
